According to publication PMC8379256, “A xanthene derivative, DS20060511, attenuates glucose intolerance by inducing skeletal muscle-specific GLUT4 translocation in mice” (Communications Biology, 2021):
Values joined by “and” are separate entries in the source; they are usually repeats but may differ in a detail not shown here. Equal entries are not always repeated.

Legend:
[1] = tested on: C57BL/6 mice; test: Blood glucose after DS20060511 alone in fed or overnight food-deprived mice; assay type: in vivo, mouse; settings: for Blood glucose: 30 mg/kg; for blood glucose levels (in words): 30 mg kg−1
Method: (§1) Fig. 2 Treatment with DS20060511 decreases the blood glucose levels via inducing GLUT4 translocation and increasing skeletal muscle glucose uptake. a, b Blood glucose levels after treatment with DS20060511 (30 mg kg^−1) in C57BL/6 mice that had received continued access to food (a) and mice that had been denied access to food overnight (b) (n = 8). Values shown are means ± SEM. **P < 0.01 vs. 0 min by one-way ANOVA followed by Dunnett’s test. c Blood glucose and plasma insulin levels during oral GTT in the C57BL/6 mice (n = 5–6). The mice received oral administration of vehicle or DS20060511 at the indicated dose, 15 min prior to glucose administration (1.5 g kg^−1). Values shown are means ± SEM. *P < 0.05, **P < 0.01 vs. vehicle by one-way ANOVA followed by Williams’ test. d [^3H]-2-DG uptake in the soleus muscle, gastrocnemius muscle (Gastro.), heart, and white adipose tissue (WAT) at 60 min during the intraperitoneal GTT in the C57BL/6 mice (n = 3). The mice received oral administration of vehicle or DS20060511 (30 mg kg^−1), 15 min prior to glucose administration (1 g kg^−1 glucose containing [^3H]-2-DG). […] Uncropped blots for e can be found in Supplementary Fig. 6.

[2] = tested on: C57BL/6 mice; test: Oral glucose tolerance test (GTT) in C57BL/6 mice: blood glucose and plasma insulin; assay type: in vivo, mouse; set-up: Blood glucose AUC: unit not given here
Method: as §1
Mice that had been denied access to food overnight received the indicated oral dose of DS20060511 or vehicle 15 min prior to the glucose load (1.5 g kg^−1, except for eNOS-knockout mice, which received 3.0 g kg^−1). Then, after the oral glucose load, the blood glucose levels were measured using Glutest Every in samples obtained from the tail vein at the indicated timepoints. Plasma insulin concentrations were also measured with an ELISA kit (Morinaga Institute of Biological Science, Yokohama, Japan) in blood samples collected from the tail vein at the indicated timepoints.

[3] = tested on: isolated soleus and EDL muscles; test: [3H]-2-DG uptake in isolated soleus and EDL muscles from WT and GLUT4KO mice; set-up: species or system mouse; settings: for 2DOG Trn / IC 2DOG / 2-DG uptake Raio: DS20060511 10μM, individual muscles; for 2DOG Trn / IC 2DOG: 2DG 1 mM, incubation time 10 min; for 2-DG uptake Raio: ratio to vehicle
Method: Fig. 3 The glucose-lowering effect of DS20060511 is totally dependent on GLUT4. a Blood glucose and plasma insulin levels during oral GTT in wild-type (WT, n = 5) and GLUT4 knockout (KO, n = 6) mice. Mice received oral administration of vehicle or DS20060511 (30 mg kg^−1), 15 min prior to the glucose administration (1.5 g kg^−1). Values shown are means ± SEM. *P < 0.05, **P < 0.01 vs. vehicle by the t-test. b DS20060511-stimulated [^3H]-2-DG uptake in the isolated soleus and EDL muscles excised from WT (n = 6) and KO (n = 6) mice. Values shown are means ± SEM. **P < 0.01 vs. vehicle by the t-test.
The soleus or EDL muscle was removed from anesthetized mice (isoflurane anesthesia) that had been denied access to food overnight, and incubated with oxygenated (95% O2/5% CO2) Krebs-Henseleit Bicarbonate (KHB) buffer (118.1 mM NaCl, 4.7 mM KCl, 1.1 mM KH2PO4, 1.2 mM MgSO4, 2.5 mM CaCl2, and 25 mM NaHCO3, pH7.4) in the presence of 11.1 mM glucose at 37 °C. The muscle specimens were then treated with the indicated concentrations of the compounds in KHB buffer containing 11.1 mM glucose and 8 mM mannitol for 10 min at 37 °C. Thereafter, the muscles were rinsed with KHB buffer containing 8 mM mannitol and the compounds for 5 min at 37 °C. Lastly, the muscles were treated with the compounds in KHB buffer containing 1 mM 2-DG (with 0.3 μCi mL^−1 [^3H]-2-DG) and 8 mM mannitol (with 0.03 μCi mL^−1 [^14C]-mannitol) for 10 min at 37 °C. After the muscle specimens were washed, they were lysed with 1 N NaOH and neutralized with 1 N HCl. The ^14C- and ^3H-specific activities were counted with a liquid scintillation counter. The specific uptake of 2-DG was calculated by subtracting the nonspecific uptake of mannitol from the total 2-DG uptake. To investigate the effects of muscle contraction, muscle contraction was induced by electrical stimulation with 5 Hz (1 ms pulse duration, 100 V) for 10 min (SEN-5201, Nihon Koden, Tokyo, Japan).

COc1ccc2c(C)c(C(=O)O)ccc2c1C1C2=C(CC(C)(C)CC2=O)OC2=C1C(=O)CC(C)(C)C2 [DS20060511]
Blood glucose ([1]; Non-fasted, 0 min, individual mice): 125 mg/dL and 139 mg/dL and 194 mg/dL and 126 mg/dL and 129 mg/dL and 150 mg/dL and 154 mg/dL and 134 mg/dL
Blood glucose ([1]; Non-fasted, 30 min): 134 mg/dL and 128 mg/dL and 101 mg/dL and 95 mg/dL and 122 mg/dL and 111 mg/dL and 121 mg/dL and 96 mg/dL
Blood glucose ([1]; Overnight fasted, 0 min): 58 mg/dL and 52 mg/dL and 73 mg/dL and 46 mg/dL and 54 mg/dL and 55 mg/dL and 61 mg/dL
Blood glucose ([1]; Overnight fasted, 30 min): 52 mg/dL and 53 mg/dL and 57 mg/dL and 60 mg/dL and 42 mg/dL and 55 mg/dL and 49 mg/dL
Blood glucose ([1]; Overnight fasted, 60 min): 56 mg/dL and 57 mg/dL and 59 mg/dL and 48 mg/dL and 50 mg/dL and 45 mg/dL
blood glucose levels (in words) ([1]; mice denied access to food overnight, Fig. 2b): no effect on the blood glucose levels
blood glucose levels (in words) ([1]; mice with continued access to food, oral, Fig. 2a): modestly, but statistically significantly, reduced the blood glucose levels
insulin secretion during oral GTT (in words) ([2]; all DS20060511-treated groups, Fig. 2c): significantly decreased
Blood glucose AUC ([2]; oral GTT, 1 mg/kg): 366 and 401 and 377 and 335 and 390 and 419
Plasma insulin AUC ([2]; oral GTT, 1 mg/kg): 0.29 and 0.49 and 0.32 and 0.27 and 0.43
Blood glucose ([2]; oral GTT, 1 mg/kg po at -15 min, -15 min, 1 mg/kg): 83 mg/dL and 81 mg/dL and 91 mg/dL and 77 mg/dL and 94 mg/dL and 72 mg/dL
Blood glucose ([2]; oral GTT, 1 mg/kg, 0 min): 104 mg/dL and 115 mg/dL and 92 mg/dL and 106 mg/dL and 89 mg/dL
Blood glucose ([2]; oral GTT, 1 mg/kg, 15 min): 270 mg/dL and 311 mg/dL and 217 mg/dL and 301 mg/dL
Blood glucose ([2]; oral GTT, 1 mg/kg, 30 min): 242 mg/dL and 212 mg/dL and 228 mg/dL and 193 mg/dL and 199 mg/dL and 254 mg/dL
Plasma insulin ([2]; oral GTT, 1 mg/kg, 30 min): 0.30 ng/mL and 0.44 ng/mL and 0.25 ng/mL and 0.34 ng/mL and 0.42 ng/mL and 0.33 ng/mL
Blood glucose ([2]; oral GTT, 1 mg/kg, 60 min): 171 mg/dL and 217 mg/dL and 165 mg/dL and 153 mg/dL and 199 mg/dL and 230 mg/dL
Blood glucose ([2]; oral GTT, 1 mg/kg, 90 min): 118 mg/dL and 159 mg/dL and 127 mg/dL and 138 mg/dL and 142 mg/dL and 153 mg/dL
Blood glucose ([2]; oral GTT, 1 mg/kg, 120 min): 106 mg/dL and 119 mg/dL and 109 mg/dL and 124 mg/dL and 132 mg/dL
Blood glucose AUC ([2]; oral GTT, 3 mg/kg): 360 and 323 and 398 and 316 and 320 and 374
Plasma insulin AUC ([2]; oral GTT, 3 mg/kg): 0.28 and 0.40 and 0.34 and 0.29 and 0.31
Blood glucose ([2]; oral GTT, 3 mg/kg, 0 min): 104 mg/dL and 117 mg/dL and 90 mg/dL
Blood glucose ([2]; oral GTT, 3 mg/kg, 15 min): 263 mg/dL and 240 mg/dL and 249 mg/dL and 228 mg/dL
Plasma insulin ([2]; oral GTT, 3 mg/kg, 15 min): 0.51 ng/mL and 0.58 ng/mL and 0.65 ng/mL and 0.53 ng/mL
Blood glucose ([2]; oral GTT, 3 mg/kg, 30 min): 228 mg/dL and 164 mg/dL and 233 mg/dL and 181 mg/dL
Plasma insulin ([2]; oral GTT, 3 mg/kg, 30 min): 0.28 ng/mL and 0.30 ng/mL and 0.37 ng/mL and 0.39 ng/mL and 0.26 ng/mL
Blood glucose ([2]; oral GTT, 3 mg/kg, 60 min): 161 mg/dL and 142 mg/dL and 202 mg/dL and 152 mg/dL
Blood glucose ([2]; oral GTT, 3 mg/kg, 90 min): 132 mg/dL and 126 mg/dL and 148 mg/dL and 100 mg/dL
Blood glucose ([2]; oral GTT, 3 mg/kg, 120 min): 105 mg/dL and 122 mg/dL and 129 mg/dL
Blood glucose ([2]; oral GTT, 3 mg/kg, -15 min): 82 mg/dL and 84 mg/dL and 94 mg/dL and 79 mg/dL
Blood glucose AUC ([2]; oral GTT, 10 mg/kg): 294 and 310 and 309 and 270 and 269
Plasma insulin AUC ([2]; oral GTT, 10 mg/kg): 0.29 and 0.30 and 0.32 and 0.43 and 0.41
Plasma insulin ([2]; oral GTT, 10 mg/kg, 15 min): 0.51 ng/mL and 0.50 ng/mL and 0.54 ng/mL and 0.40 ng/mL and 0.68 ng/mL
Plasma insulin ([2]; oral GTT, 10 mg/kg, 30 min): 0.35 ng/mL and 0.28 ng/mL and 0.43 ng/mL and 0.31 ng/mL and 0.46 ng/mL
Blood glucose AUC ([2]; oral GTT, 30 mg/kg): 258 and 200 and 219 and 225 and 241
Plasma insulin AUC ([2]; oral GTT, 30 mg/kg): 0.21 and 0.30 and 0.35 and 0.22 and 0.34
Plasma insulin ([2]; oral GTT, 30 mg/kg, 15 min): 0.46 ng/mL and 0.58 ng/mL and 0.48 ng/mL and 0.34 ng/mL
blood glucose levels after oral glucose load (in words) ([2]; oral GTT, given prior to glucose load, Fig. 2c): dose-dependent suppression of rise of the blood glucose levels
2-DG uptake by isolated soleus and EDL muscles (in words) ([3]; GLUT4KO mice): no such increase in muscle uptake was observed
2DOG Trn ([3]; GLUT4KO, isolated EDL): 219 nmol/ml and 21.9 µM/min and 229 nmol/ml and 22.9 µM/min and 220 nmol/ml and 22.0 µM/min and 239 nmol/ml and 23.9 µM/min and 247 nmol/ml and 24.7 µM/min
IC 2DOG ([3]; GLUT4KO, isolated EDL): 136 nmol/g and 155 nmol/g and 142 nmol/g and 149 nmol/g and 143 nmol/g and 156 nmol/g
2-DG uptake Raio ([3]; GLUT4KO, isolated EDL): 1.02 and 1.07 and 1.03 and 1.11 and 1.15
2DOG Trn ([3]; GLUT4KO, isolated Soleus): 272 nmol/ml and 27.2 µM/min and 411 nmol/ml and 41.1 µM/min and 553 nmol/ml and 55.3 µM/min and 323 nmol/ml and 32.3 µM/min and 280 nmol/ml and 28.0 µM/min and 475 nmol/ml and 47.5 µM/min
IC 2DOG ([3]; GLUT4KO, isolated Soleus): 151 nmol/g and 223 nmol/g and 272 nmol/g and 155 nmol/g and 138 nmol/g and 244 nmol/g
2-DG uptake Raio ([3]; GLUT4KO, isolated Soleus): 0.86 and 1.30 and 1.75 and 1.02 and 0.89 and 1.50
2-DG uptake by isolated soleus and EDL muscles (in words) ([3]; WT mice): significantly increased the 2-DG uptake
2DOG Trn ([3]; Wildtype, isolated EDL): 620 nmol/ml and 62.0 µM/min and 476 nmol/ml and 47.6 µM/min and 591 nmol/ml and 59.1 µM/min and 474 nmol/ml and 47.4 µM/min and 359 nmol/ml and 35.9 µM/min and 351 nmol/ml and 35.1 µM/min
IC 2DOG ([3]; Wildtype, isolated EDL): 373 nmol/g and 286 nmol/g and 340 nmol/g and 291 nmol/g and 235 nmol/g and 229 nmol/g
2-DG uptake Raio ([3]; Wildtype, isolated EDL): 2.47 and 1.90 and 2.36 and 2.12 and 1.61 and 1.57
2DOG Trn ([3]; Wildtype, isolated Soleus): 632 nmol/ml and 63.2 µM/min and 599 nmol/ml and 59.9 µM/min and 719 nmol/ml and 71.9 µM/min and 638 nmol/ml and 63.8 µM/min and 552 nmol/ml and 55.2 µM/min and 582 nmol/ml and 58.2 µM/min
IC 2DOG ([3]; Wildtype, isolated Soleus): 343 nmol/g and 302 nmol/g and 363 nmol/g and 327 nmol/g and 293 nmol/g and 321 nmol/g
2-DG uptake Raio ([3]; Wildtype, isolated Soleus): 1.76 and 1.67 and 2.01 and 2.02 and 1.75 and 1.84
